The values that follow come from US7385026B1, “Modified ghrelin polypeptides” (priority 1999, dated 2008).

The target in one test is T1, rat GHS-receptor (GHR-R) (Rattus norvegicus, UniProt O08725).
T1 construct: A full-length cDNA for rat GHR-R was obtained by RT-PCR; expressed in transfected cells
Put plainly: Ca-releasing activity (increase in intracellular calcium) in CHO-GHSR62 cells, FLIPR. It is filed as cell-based. Summed up:
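CHO cells stably expressing full-length rat GHS-R (CHO-GHSR62) were cultured 12–15 h, loaded with 4 μM Fluo4 for 1 h and washed with Hank's BSS containing 20 mM Hepes and 2.5 mM probenecid. Ca-releasing activity of ghrelin peptides, fragments or derivatives was read by FLIPR as the fluorescence change after sample addition.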
On the technique in general: Calcium flux is commonly read through the fluorescence of an indicator in the cells.

In test [1] the test system is amino-terminal antibody (anti-[C-Cys]-rat ghrelin [1-11] antigen). Nature of the test: Radioimmunoassay: inhibition of binding of labeled rat ghrelin to amino-terminal antibody. Also noted: species or system rabbit.
The subject of test [2] is rat pituitary cultured cells. Put plainly: Intracellular calcium change in primary anterior pituitary cells. The test is classed as cell-based. As to conditions: FIG. 5a.
Test [3] deals with carboxyl-terminal antibody (anti-[C-Cys]-rat ghrelin [13-28] antigen). Nature of the test: Radioimmunoassay: inhibition of binding of labeled rat ghrelin to carboxyl-terminal antibody. Also noted: species or system rabbit. The following applies: FIG. 9b, amount per reaction tube. From the text:
Using antibodies raised against amino- and carboxyl-terminal rat ghrelin peptides as antigens, ghrelin in various living tissues was quantified by radioimmunoassay (RIA).
Rabbits were immunized with [C-Cys]-rat ghrelin [1-11] (rat ghrelin peptide of amino acids 1 to 11 from amino-terminal having cysteine bound to the carboxyl-terminal thereof) and [C-Cys]-rat ghrelin [13-28] (rat ghrelinpeptideof aminoacids 13 to 28 from amino-terminal having cysteine bound to the carboxyl-terminal thereof) as antigens, to form amino-terminal antibody (anti-[C-Cys]-rat ghrelin [1-11] antigen) and carboxyl-terminal antibody (anti-[C-Cys]-rat ghrelin [13-28] antigen) respectively.
That is, it was confirmed that the carboxyl-terminal antibodyhas the same affinity for ghrelin modified with fatty acid and for ghrelin from which fatty acid was released.

The next test has as its system IGS-SD strain rats. Nature of the test: GH-releasing activity of long-chain ghrelin derivatives in rat (plasma GH 15 min after i.v.). As to conditions: for GH level in plasma in 15 min. after administration, M ± S.D.: n=3; for GH level in plasma in 15 min. after administration, individual rats (Rat 1-3): rats under Nembutal; for GH-releasing activity (in words): i.v., plasma GH at 15 minutes. The test is classed as in vivo. The procedure:
Fifteen minutes after administration, plasma was collected, and the concentration of GH in plasma was measured by radioimmunoassay (Biotrak/Amersham). Separately, 0.2% bovine serum albumin (BSA)-physiological saline, 6 nmol/kg rGhrelin and hGhrelin, or 80 nmol/kg Ipamorelin (Compound 80) was administered into other rats as the control, respectively, and the concentrations of GH in plasma in 15 minutes after administration were compared (for each sample, n=3).

The next test has as its system Wister male rats. Put plainly: Cell growth: 3H-thymidine incorporation into bone marrow, duodenum, jejunum. It is filed as in vivo, rat. The following applies: 20 μg/kg i.v., 18 hours after administration. How it is done:
To examine the action of administered ghrelin on promotion of cell growth, the f ollowing experiment was conducted. Twenty μg/kg of rat ghrelin or thioether-type rat ghrelin (Compound 18 [Cys^3(octyl)]-hghrelin) was administered into tail veins of Wister male rats (7.5-week-old) respectively. Seventeen hours after administration, ^3H-thymidine was administered into tail veins, and 1 hour thereafter, duodenum, jejunum and bone marrow were excised. The incorporation of […] to DNA fractions of these tissues was measured in order to examine the cell growth-promoting action of ghrelin and ghrelin derivatives. The tissues were cut thin and homogenized using a Polytron homogenizer, and after centrifugation, the supernatant was precipitated with trichloroacetic acid to give a DNA fraction. The radioactivity of the DNA fraction was measured by a liquid scintillation counter.
Numerical values show the ratio (%) of incorporation of radioisotope relative to the mean (in triplicate) of the comparative example (i.e. the group given physiological saline).

Another test deals with Wistar strain male rats. Nature of the test: Change of GH level in plasma over time after i.v. administration. The test is classed as in vivo, rat. As to conditions: 5 μg/head i.v.; for GH level in plasma, individual rats (Rat 1-5): listed as [Cys^3(Octyl)]-rat ghrelin. How it is done: Physiological saline as the control and rat ghrelin (5 μg/head) were also administered and compared with Compound 18.

[4] abbreviates: CHO-GHSR62 cells (CHO cells expressing rat GHS receptor), FLIPR, read-out: Ca-releasing activity EC50.

Values joined by “and” are separate entries in the source; they are usually repeats but may differ in a detail not shown here. Identical values can stand only once. Like-named read-outs stand apart in the source and are kept apart here.

T1 sequence (O08725 whole entry): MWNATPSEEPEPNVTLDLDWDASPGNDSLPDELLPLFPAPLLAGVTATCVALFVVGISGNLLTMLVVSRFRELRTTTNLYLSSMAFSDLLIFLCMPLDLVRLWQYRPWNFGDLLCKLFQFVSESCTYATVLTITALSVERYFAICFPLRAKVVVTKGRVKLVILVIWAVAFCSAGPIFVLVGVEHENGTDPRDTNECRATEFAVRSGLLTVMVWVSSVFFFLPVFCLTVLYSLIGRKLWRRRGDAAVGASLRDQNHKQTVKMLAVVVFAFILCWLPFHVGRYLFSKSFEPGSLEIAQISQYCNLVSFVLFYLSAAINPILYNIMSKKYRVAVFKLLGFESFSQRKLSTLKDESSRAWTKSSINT

What is called EC50 is the concentration needed to bring the measured effect to its halfway point. For `CCCCCC(=O)OC[C@H](NC(=O)[C@H](CO)NC(=O)CN)C(=O)N[C@@H](Cc1ccccc1)C(=O)N[C@@H](CC(C)C)C(=O)N[C@@H](CO)C(=O)N1CCC[C@H]1C(=O)N[C@@H](CCC(=O)O)C(=O)N[C@@H](Cc1c[nH]cn1)C(=O)N[C@@H](CCC(N)=O)C(=O)N[C@@H](CCCCN)C(=O)N[C@@H](C)C(=O)N[C@@H](CCC(N)=O)C(=O)N[C@@H](CCC(N)=O)C(=O)N[C@@H](CCCNC(=N)N)C(=O)N[C@@H](CCCCN)C(=O)N[C@@H](CCC(=O)O)C(=O)N[C@@H](CO)C(=O)N[C@@H](CCCCN)C(=O)N[C@@H](CCCCN)C(=O)N1CCC[C@H]1C(=O)N1CCC[C@H]1C(=O)N[C@@H](C)C(=O)N[C@@H](CCCCN)C(=O)N[C@@H](CC(C)C)C(=O)N[C@@H](CCC(N)=O)C(=O)N1CCC[C@H]1C(=O)N[C@@H](CCCNC(=N)N)C(=O)O` [Compound 11, [Ser^3(Hexanoyl)]-rGhrelin], the EC50 on rat GHS-receptor (GHR-R) (setting [4]) stood at 16 nM. For the same compound, the “cross-reactivity with the amino-terminal antibody” value in test [1] was 0.3%.
Regarding `CC(C)C[C@H](NC(=O)[C@H](CCCCN)NC(=O)[C@H](C)NC(=O)[C@@H]1CCCN1C(=O)[C@@H]1CCCN1C(=O)[C@H](CCCCN)NC(=O)[C@H](CCCCN)NC(=O)[C@H](CO)NC(=O)[C@H](CCC(=O)O)NC(=O)[C@H](CCCCN)NC(=O)[C@H](CCCNC(=N)N)NC(=O)[C@H](CCC(N)=O)NC(=O)[C@H](CCC(N)=O)NC(=O)[C@H](C)NC(=O)[C@H](CCCCN)NC(=O)[C@H](CCC(N)=O)NC(=O)[C@H](Cc1c[nH]cn1)NC(=O)[C@H](CCC(=O)O)NC(=O)[C@@H]1CCCN1C(=O)[C@H](CO)NC(=O)[C@H](CC(C)C)NC(=O)[C@H](Cc1ccccc1)NC(=O)[C@H](CO)NC(=O)[C@H](CO)NC(=O)CN)C(=O)N[C@@H](CCC(N)=O)C(=O)N1CCC[C@H]1C(=O)N[C@@H](CCCNC(=N)N)C(=O)O` [Compound 7, [Ser^3]-rat Ghrelin], the “Ca-releasing activity (in words)” value on rat GHS-receptor (GHR-R) (CHO-GHSR62 cells) is “did not show a significant Ca-releasing activity”. Also, the “change in intracellular calcium ion concentration” value in test [2] is given as “slightly increased Ca-releasing activity”. In test [3], the “IC50 in binding between radioisotope-labeled rat ghrelin and the carboxyl-terminal antibody” value was 44 fmol. In addition, the “reaction / affinity with the amino-terminal antibody (in words)” value in test [1] was “did not react”.
`CCCCCCCCCC(=O)OC[C@H](NC(=O)[C@H](CO)NC(=O)CN)C(=O)N[C@@H](Cc1ccccc1)C(=O)N[C@@H](CC(C)C)C(=O)N[C@@H](CO)C(=O)N1CCC[C@H]1C(=O)N[C@@H](CCC(=O)O)C(=O)N[C@@H](Cc1c[nH]cn1)C(=O)N[C@@H](CCC(N)=O)C(=O)N[C@@H](CCCCN)C(=O)N[C@@H](C)C(=O)N[C@@H](CCC(N)=O)C(=O)N[C@@H](CCC(N)=O)C(=O)N[C@@H](CCCNC(=N)N)C(=O)N[C@@H](CCCCN)C(=O)N[C@@H](CCC(=O)O)C(=O)N[C@@H](CO)C(=O)N[C@@H](CCCCN)C(=O)N[C@@H](CCCCN)C(=O)N1CCC[C@H]1C(=O)N1CCC[C@H]1C(=O)N[C@@H](C)C(=O)N[C@@H](CCCCN)C(=O)N[C@@H](CC(C)C)C(=O)N[C@@H](CCC(N)=O)C(=O)N1CCC[C@H]1C(=O)N[C@@H](CCCNC(=N)N)C(=O)O` [Compound 12, [Ser^3(Decanoyl)]-rGhrelin]: the EC50 at rat GHS-receptor (GHR-R) (setting [4]) worked out at 1.7 nM; at rat GHS-receptor (GHR-R) (Table 3, Example 9: protease fragments or synthetic peptides, CHO-GHSR62 cells, read-out: Ca-releasing activity (EC50)), 2.6 nM. Besides, the “cross-reactivity with the amino-terminal antibody” value in test [1] was determined as 20%.
With `CC(C)C[C@H](NC(=O)[C@H](CCCCN)NC(=O)[C@H](C)NC(=O)[C@@H]1CCCN1C(=O)[C@@H]1CCCN1C(=O)[C@H](CCCCN)NC(=O)[C@H](CCCCN)NC(=O)[C@H](CO)NC(=O)[C@H](CCC(=O)O)NC(=O)[C@H](CCCCN)NC(=O)[C@H](CCCNC(=N)N)NC(=O)[C@H](CCC(N)=O)NC(=O)[C@H](CCC(N)=O)NC(=O)[C@@H](NC(=O)[C@H](CCCNC(=N)N)NC(=O)[C@H](CCC(N)=O)NC(=O)[C@H](Cc1c[nH]cn1)NC(=O)[C@H](CCC(=O)O)NC(=O)[C@@H]1CCCN1C(=O)[C@H](CO)NC(=O)[C@H](CC(C)C)NC(=O)[C@H](Cc1ccccc1)NC(=O)[C@H](COC(=O)CCc1ccccc1)NC(=O)[C@H](CO)NC(=O)CN)C(C)C)C(=O)N[C@@H](CCC(N)=O)C(=O)N1CCC[C@H]1C(=O)N[C@@H](CCCNC(=N)N)C(=O)O` [Compound 15, [Ser^3(3-Phenylpropionyl)]-hGhrelin], the EC50 at rat GHS-receptor (GHR-R) (setting [4]) stood at 1.4 nM. Besides, the “GH level in plasma in 15 min. after administration, M ± S.D.” value with IGS-SD strain rats (dose 18 nmol/kg i.v.) is 1926 ± 299 ng/mL. The “GH level in plasma in 15 min. after administration, individual rats (Rat 1-3)” value in the test with IGS-SD strain rats (dose 18 nmol/kg i.v., listed as [Ser^3(Phenylpropionyl)]-hGhrelin) is 2119 ng/mL and 2078 ng/mL and 1581 ng/mL. Further, the “GH-releasing activity (in words)” value in the test on IGS-SD strain rats is recorded as “strong GH-releasing activity”.
Turning to `CCCCCCCCSC[C@H](NC(=O)[C@H](CO)NC(=O)CN)C(=O)N[C@@H](Cc1ccccc1)C(=O)N[C@@H](CC(C)C)C(=O)N[C@@H](CO)C(=O)N1CCC[C@H]1C(=O)N[C@@H](CCC(=O)O)C(=O)N[C@@H](Cc1c[nH]cn1)C(=O)N[C@@H](CCC(N)=O)C(=O)N[C@@H](CCCCN)C(=O)N[C@@H](C)C(=O)N[C@@H](CCC(N)=O)C(=O)N[C@@H](CCC(N)=O)C(=O)N[C@@H](CCCNC(=N)N)C(=O)N[C@@H](CCCCN)C(=O)N[C@@H](CCC(=O)O)C(=O)N[C@@H](CO)C(=O)N[C@@H](CCCCN)C(=O)N[C@@H](CCCCN)C(=O)N1CCC[C@H]1C(=O)N1CCC[C@H]1C(=O)N[C@@H](C)C(=O)N[C@@H](CCCCN)C(=O)N[C@@H](CC(C)C)C(=O)N[C@@H](CCC(N)=O)C(=O)N1CCC[C@H]1C(=O)N[C@@H](CCCNC(=N)N)C(=O)O` [Compound 18, [Cys^3(Octyl)]-rGhrelin], the “incorporation of 3H-thymidine relative to the mean of the physiological saline group, Bone marrow (in tissues)” value with Wister male rats is on record as 144.5%. In the test with Wister male rats, the “incorporation of 3H-thymidine relative to the mean of the physiological saline group, Duodenum (in DNA fraction)” value is 114.0%. The “incorporation of 3H-thymidine relative to the mean of the physiological saline group, Jejunum (in DNA fraction)” value in the test on Wister male rats was found to be 151.0%. In addition, the EC50 on rat GHS-receptor (GHR-R) (setting [4]) turned out to be 5.4 nM. Moreover, the “GH level in plasma in 15 min. after administration, M ± S.D.” value in the test with IGS-SD strain rats (dose 30 nmol/kg i.v.) worked out at 2494 ± 253 ng/mL. Besides, the “GH level in plasma in 15 min. after administration, individual rats (Rat 1-3)” value in the test with IGS-SD strain rats (dose 30 nmol/kg i.v.) is 2786 ng/mL and 2342 ng/mL and 2354 ng/mL. Further, the “GH-releasing activity (in words)” value in the test on IGS-SD strain rats is reported as “strong GH-releasing activity”. Moreover, the “GH level in plasma, Mean ± S.D.” value in the test on Wistar strain male rats (time 0 min) is reported as 120 ± 146 ng/mL; with Wistar strain male rats (time 5 min), 450 ± 133 ng/mL; in the test on Wistar strain male rats (time 10 min), 783 ± 324 ng/mL; in the test with Wistar strain male rats (time 15 min), 1093 ± 506 ng/mL; in the test with Wistar strain male rats (time 20 min) it was 1067 ± 445 ng/mL; in the test with Wistar strain male rats (time 30 min) it was 589 ± 229 ng/mL. The “GH level in plasma, Mean ± S.D.” value in the test with Wistar strain male rats (time 60 min) came to 132 ± 53 ng/mL. In addition, the “GH level in plasma, individual rats (Rat 1-5)” value in the test with Wistar strain male rats (time 0 min) was 33 ng/mL and 32 ng/mL and 377 ng/mL and 101 ng/mL and 59 ng/mL; in the test with Wistar strain male rats (time 5 min), 530 ng/mL and 613 ng/mL and 338 ng/mL and 294 ng/mL and 476 ng/mL; with Wistar strain male rats (time 10 min), 959 ng/mL and 1060 ng/mL and 687 ng/mL and 258 ng/mL and 949 ng/mL; in the test on Wistar strain male rats (time 15 min), 1451 ng/mL and 1561 ng/mL and 927 ng/mL and 300 ng/mL and 1229 ng/mL; in the test with Wistar strain male rats (time 20 min) it was 1299 ng/mL and 1359 ng/mL and 900 ng/mL and 358 ng/mL and 1417 ng/mL; in the test with Wistar strain male rats (time 30 min) it was 800 ng/mL and 726 ng/mL and 469 ng/mL and 245 ng/mL and 704 ng/mL. Further, the “GH level in plasma, individual rats (Rat 1-5)” value in the test with Wistar strain male rats (time 60 min) is 220 ng/mL and 122 ng/mL and 98 ng/mL and 86 ng/mL and 133 ng/mL.
